Data from US12516046B2, “2-oxo-oxazolidine-5-carboxamides as NAV1.8 inhibitors” (Merck Sharp & Dohme LLC, priority 2020, dated 2026).
pIC50: −log10 of the molar value.

Target: human Nav1.8 (Homo sapiens (Human), UniProt Q9Y5Y9)
Test: Nav1.8 Qube® Assay (automated 384-well patch-clamp)
Assay type: cell-based
Details: human Nav1.8 channels stably expressed in HEK 293 cells
Source text: Qube® Assay Experimental Procedure

Chain of human Nav1.8 (Q9Y5Y9 whole entry): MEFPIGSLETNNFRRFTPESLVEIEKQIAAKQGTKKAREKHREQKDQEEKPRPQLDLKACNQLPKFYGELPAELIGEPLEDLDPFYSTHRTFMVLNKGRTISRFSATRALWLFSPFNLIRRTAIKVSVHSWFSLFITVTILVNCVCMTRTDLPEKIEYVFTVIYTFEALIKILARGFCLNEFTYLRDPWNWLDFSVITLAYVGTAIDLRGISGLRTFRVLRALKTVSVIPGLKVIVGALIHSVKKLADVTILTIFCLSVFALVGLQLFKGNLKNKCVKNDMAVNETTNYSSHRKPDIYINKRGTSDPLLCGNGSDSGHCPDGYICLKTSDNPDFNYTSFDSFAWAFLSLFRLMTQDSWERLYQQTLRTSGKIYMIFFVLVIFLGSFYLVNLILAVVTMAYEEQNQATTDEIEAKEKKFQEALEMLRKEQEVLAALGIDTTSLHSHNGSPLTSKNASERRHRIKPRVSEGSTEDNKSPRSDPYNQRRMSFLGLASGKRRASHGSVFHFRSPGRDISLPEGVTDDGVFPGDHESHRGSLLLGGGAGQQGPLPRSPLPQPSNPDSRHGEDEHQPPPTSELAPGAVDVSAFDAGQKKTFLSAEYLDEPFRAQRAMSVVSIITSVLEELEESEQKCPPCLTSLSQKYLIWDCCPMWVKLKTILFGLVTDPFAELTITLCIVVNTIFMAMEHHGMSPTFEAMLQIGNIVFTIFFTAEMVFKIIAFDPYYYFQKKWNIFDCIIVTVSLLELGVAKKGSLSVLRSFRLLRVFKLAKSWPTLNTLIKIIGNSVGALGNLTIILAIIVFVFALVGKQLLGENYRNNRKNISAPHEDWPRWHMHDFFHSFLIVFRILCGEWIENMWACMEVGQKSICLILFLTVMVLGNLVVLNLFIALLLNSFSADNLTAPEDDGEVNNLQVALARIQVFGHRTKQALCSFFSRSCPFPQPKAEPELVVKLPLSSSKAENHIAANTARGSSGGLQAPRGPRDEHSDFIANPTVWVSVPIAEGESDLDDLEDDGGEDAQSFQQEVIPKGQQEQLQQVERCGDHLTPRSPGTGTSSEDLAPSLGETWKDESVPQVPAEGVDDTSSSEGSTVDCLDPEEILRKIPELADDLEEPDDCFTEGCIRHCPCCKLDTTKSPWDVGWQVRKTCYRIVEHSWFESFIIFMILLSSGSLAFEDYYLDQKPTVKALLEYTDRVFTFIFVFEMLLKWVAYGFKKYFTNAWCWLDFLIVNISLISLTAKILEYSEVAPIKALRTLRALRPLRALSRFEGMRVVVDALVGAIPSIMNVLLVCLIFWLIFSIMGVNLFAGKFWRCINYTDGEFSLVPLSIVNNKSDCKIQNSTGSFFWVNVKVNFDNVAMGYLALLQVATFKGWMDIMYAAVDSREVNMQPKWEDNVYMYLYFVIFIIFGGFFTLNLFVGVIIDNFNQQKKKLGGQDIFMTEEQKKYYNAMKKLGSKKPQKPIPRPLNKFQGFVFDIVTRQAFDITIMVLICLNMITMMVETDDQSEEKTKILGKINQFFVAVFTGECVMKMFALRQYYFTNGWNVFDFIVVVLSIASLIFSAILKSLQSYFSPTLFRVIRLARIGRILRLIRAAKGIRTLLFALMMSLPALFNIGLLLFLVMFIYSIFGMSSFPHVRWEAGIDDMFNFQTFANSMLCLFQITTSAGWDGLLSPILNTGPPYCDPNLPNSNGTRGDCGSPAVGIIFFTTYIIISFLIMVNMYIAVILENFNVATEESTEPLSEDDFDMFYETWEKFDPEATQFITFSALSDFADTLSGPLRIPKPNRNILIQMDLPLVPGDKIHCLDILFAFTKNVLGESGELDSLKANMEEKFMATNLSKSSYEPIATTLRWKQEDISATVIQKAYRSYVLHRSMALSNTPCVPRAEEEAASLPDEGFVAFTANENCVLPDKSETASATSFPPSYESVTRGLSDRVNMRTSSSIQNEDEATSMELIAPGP

Structure (SMILES) | pIC50
Cn1nc(C(NC(=O)[C@@H]2CNC(=O)O2)c2ccc(F)c(Cl)c2)cc1C(F)(F)F (single isomer, unassigned) [Example 62B, (S)-N-((R or S)-(3-chloro-4-fluorophenyl)(1-methyl-5-(trifluoromethyl)-1H-pyrazol-3-yl)methyl)-2-oxooxazolidine-5-carboxamide] | 7.96
CC(NC(=O)[C@@H]1CNC(=O)O1)(c1ccc(Cl)cc1)c1ccc(Cl)cc1 [Example 41, (S)-N-(1,1-bis(4-chlorophenyl)ethyl)-2-oxooxazolidine-5-carboxamide] | 6.42
O=C1NC[C@@H](C(=O)NC(c2ccc(Cl)cc2)c2nc(C(F)(F)F)cs2)O1 (single isomer, unassigned) [Example 12A, (S)-N-((R or S)-(4-chlorophenyl)(4-(trifluoromethyl)thiazol-2-yl)methyl)-2-oxooxazolidine-5-carboxamide] | 7.80
CC1NC(=O)OC1C(=O)NC(c1ccc(Cl)cc1)c1ccc(Cl)cc1 (single isomer, unassigned) [Example 6B, (cis or trans)-N-(bis(4-chlorophenyl)methyl)-4-methyl-2-oxooxazolidine-5-carboxamide] | 5.82
COc1ccc(C(NC(=O)[C@@H]2CNC(=O)O2)c2ccc(Cl)cc2)cn1 (single isomer, unassigned) [Example 22B, (S)-N-((R or S)-(4-chlorophenyl)(6-methoxypyridin-3-yl)methyl)-2-oxooxazolidine-5-carboxamide] | 6.50
O=C1NC[C@@H](C(=O)NC(c2ccc(Cl)cc2)c2n[nH]c3ccccc23)O1 (single isomer, unassigned) [Example 15B, (S)-N-((R or S)-(4-chlorophenyl)(1H-indazol-3-yl)methyl)-2-oxooxazolidine-5-carboxamide] | 7.24

Results, then the compound that gave them:

pIC50 | Structure (SMILES)
6.95 | O=C1NC[C@@H](C(=O)NC(c2ccc(Cl)cc2)c2ccc(C(F)(F)F)cn2)O1 (single isomer, unassigned) [Example 37A, (S)-N-((R or S)-(4-chlorophenyl)(5-(trifluoromethyl)pyridin-2-yl)methyl)-2-oxooxazolidine-5-carboxamide]
5.62 | O=C1NC[C@@H](C(=O)NC(c2ccc(F)c(Cl)c2F)[C@@H]2CC[C@@H](C(F)(F)F)CO2)O1 (single isomer, unassigned) [Example 9D]
7.89 | O=C1NC[C@@H](C(=O)NC(c2ccc(OC(F)(F)F)c(Cl)c2)c2ccnc(C(F)(F)F)n2)O1 (single isomer, unassigned) [Example 52B, (S)-N-((R or S)-(3-chloro-4-(trifluoromethoxy)phenyl)(2-(trifluoro-methyl)pyrimidin-4-yl)methyl)-2-oxooxazolidine-5-carboxamide]
8.41 | O=C1NC[C@@H](C(=O)NC(c2ccc(Cl)cc2)c2ccc3ccccc3c2)O1 (stereo partly drawn) [Example 31, (5S)-N-((4-chlorophenyl) (naphthalen-2-yl)methyl)-2-oxooxazolidine-5-carboxamide]
8.62 | O=C1NC[C@@H](C(=O)NC(c2ccc(Cl)cc2)c2ccc(F)c(Cl)c2)O1 (single isomer, unassigned) [Example 19B, (S)—N—((R or S)-(3-chloro-4-fluorophenyl)(4-chlorophenyl)methyl)-2-oxooxazolidine-5-carboxamide]
6.09 | O=C1NC[C@@H](C(=O)NC(c2ccc(F)c(Cl)c2)C2CCN(CC(F)(F)F)C2)O1 (single isomer, unassigned) [Example 43B, (S)-N-((R or S)-(3-chloro-4-fluorophenyl)((R or S)-1-(2,2,2-trifluoroethyl)pyrrolidin-3-yl)methyl)-2-oxooxazolidine-5-carboxamide]
7.59 | O=C1NC[C@@H](C(=O)NC(c2ccc(Cl)cc2)c2ccc(C(F)(F)F)cn2)O1 (single isomer, unassigned) [Example 37B, (S)-N-((R or S)-(4-chlorophenyl)(5-(trifluoromethyl)pyridin-2-yl)methyl)-2-oxooxazolidine-5-carboxamide]
